According to patent US11097034B2, “Compositions and methods of modulating endochondral ossification and bone formation” (CASE WESTERN RESERVE UNIVERISTY, priority 2016, dated 2021):

What was measured:
unstable tibia fractures = assay: Carbachol injection into tibia fracture callus, μCT; assay type: in vivo, mouse; settings: injected into callus during cartilaginous phase; vs DMEM controls; trend
Description: All procedures were performed on adult male wild type (C57BL/6) mice. We created unstable tibia fractures through three point bending and surgically resected nerves proximal to the fracture (either the sciatic nerve, femoral nerve, or both) and compared them to mice who received sham procedures. We injected Carbachol (Cch), a synthetic acetylcholine analogue, into the callus during the cartilaginous phase of healing and compared them to controls that were injected with Dulbecco's Modified Eagle's medium (DMEM) alone. Bone mineral density (BMD) and bone volume were quantified using micro-computed tomography (μCT) analysis. Following μCT the tibiae were processed for histology and stained using the Hall Brunt Quadruple stain (HBQ). The tissue composition was quantified using stereology on an Olympus Cast system.

bone fracture = assay: Temporal delivery of NGF to bone fracture site; assay type: in vivo, mice; settings: NGF delivery 7-9 days post-fracture compared with 4-6 days
Source text: FIGS. 24(A-B) illustrate plots showing the temporal therapeutic delivery of NGF to improve bone fracture healing in mice. (A) Timeline of experimental delivery of NGF to bone fracture site for two different post-fracture time ranges. (B) NGF expression decreases over time post-fracture.

Row | Compound | bone mineral density (BMD), μCT (unstable tibia fractures) | activation of selected bone healing markers (bone fracture)
1 | C[N+](C)(C)CCOC(N)=O [Cch, Carbachol] | higher BMD than controls | 
2 | NGF: nerve growth factor |  | more robust activation of selected bone healing markers
